Test results published in ChEMBL document CHEMBL3885861, “Open TG-GATES”.

Species on record: Rattus norvegicus
Test: Open TG-GATES - Regimen: Daily Repeat
Format: toxicity, organism-based, Sprague-Dawley
Parameters: regimen Daily Repeat, gender Male, age 6 weeks
Settings: in vivo, po, 0 mg/kg, route gavage, dose level Control; for KIDNEY_L / KIDNEY_R / KIDNEY_TOTAL: tissue Kidney; for ALT / AST / CRE / DBIL / GLC / IP / K / LDH / PL / RALB / TBIL / TC / TG / TP / gamma-GTP: tissue Plasma

## CC(C)OC(=O)C(C)(C)Oc1ccc(C(=O)c2ccc(Cl)cc2)cc1 [FENOFIBRATE]
72 h, time 3 day
  TERMINAL_BW: 218.5 g
  KIDNEY_L: 1 g
  KIDNEY_R: 0.9 g
  KIDNEY_TOTAL: 1.9 g
  ALT: 44.4 IU/L
  AST: 69 IU/L
  CRE: 0.2 mg/dL
  DBIL: 0.014 mg/dL
  GLC: 180.4 mg/dL
  IP: 8.3 mg/dL
  K: 4.3 meq/L
  LDH: 75.2 IU/L
  PL: 150.2 mg/dL
  RALB: 2.6 g/dL
  TBIL: 0.042 mg/dL
  TC: 76.8 mg/dL
  TG: 86 mg/dL
  TP: 5.6 g/dL
  gamma-GTP: 1.2 IU/L
72 h, tissue Blood, time 3 day
  Bas: 0.2%
  Eos: 1.2%
  Fbg: 275 mg/dL
  Ht: 39.9%
  MCHC: 33%
  Mono: 3.2%
  Plat: 108.4 x10_4/uL
  RBC: 625.4 x10_4/ul
  Ret: 7.7%
  WBC: 80.3 x10_2/uL
[…], time 7 day
  TERMINAL_BW: 254.4 g
  KIDNEY_L: 1.1 g
  KIDNEY_R: 1.1 g
  KIDNEY_TOTAL: 2.1 g
  ALT: 47.8 IU/L
  AST: 72.2 IU/L
  CRE: 0.2 mg/dL
  DBIL: 0.012 mg/dL
  GLC: 187.8 mg/dL
  IP: 7.9 mg/dL
  K: 4.3 meq/L
  LDH: 89.6 IU/L
  PL: 147.8 mg/dL
  RALB: 2.7 g/dL
  TBIL: 0.036 mg/dL
  TC: 72.2 mg/dL
  TG: 122.6 mg/dL
  TP: 5.8 g/dL
  gamma-GTP: 1 IU/L
[…], time 14 day
  TERMINAL_BW: 310.8 g
  KIDNEY_L: 1.2 g
  KIDNEY_R: 1.2 g
  KIDNEY_TOTAL: 2.4 g
  ALT: 40.8 IU/L
  AST: 65.8 IU/L
  CRE: 0.2 mg/dL
  DBIL: 0.014 mg/dL
  GLC: 188.2 mg/dL
  IP: 7.5 mg/dL
  K: 4.3 meq/L
  LDH: 106.6 IU/L
  PL: 144.8 mg/dL
  RALB: 2.7 g/dL
  TBIL: 0.038 mg/dL
  TC: 64.6 mg/dL
  TG: 188 mg/dL
  TP: 5.9 g/dL
  gamma-GTP: 1 IU/L
[…], time 28 day
  TERMINAL_BW: 390.8 g
  KIDNEY_L: 1.3 g
  KIDNEY_R: 1.3 g
  KIDNEY_TOTAL: 2.5 g
  ALT: 40.2 IU/L
  AST: 65.8 IU/L
  CRE: 0.2 mg/dL
  DBIL: 0.012 mg/dL
  GLC: 186 mg/dL
  IP: 7.1 mg/dL
  K: 3.6 meq/L
  LDH: 90 IU/L
  PL: 142 mg/dL
  RALB: 2.8 g/dL
  TBIL: 0.042 mg/dL
  TC: 71.4 mg/dL
  TG: 117.8 mg/dL
  TP: 6.3 g/dL
  gamma-GTP: 1.2 IU/L
[…], tissue Blood, time 7 day
  Bas: 0%
  Eos: 1%
  Fbg: 310.4 mg/dL
  Ht: 41.5%
  MCHC: 32.7%
  Mono: 2.8%
  Plat: 113.6 x10_4/uL
  RBC: 650 x10_4/ul
  Ret: 6.1%
  WBC: 94.9 x10_2/uL
[…], tissue Blood, time 14 day
  Bas: 0%
  Eos: 1%
  Fbg: 309.8 mg/dL
  Ht: 43.2%
  MCHC: 33.2%
  Mono: 2.2%
  Plat: 111 x10_4/uL
  RBC: 692.6 x10_4/ul
  Ret: 4.5%
  WBC: 81.5 x10_2/uL
[…], tissue Blood, time 28 day
  Bas: 0.4%
  Eos: 1.2%
  Fbg: 270.6 mg/dL
  Ht: 45.9%
  MCHC: 33.9%
  MCV: 59.2 fL
  Mono: 2.2%
  Plat: 101.9 x10_4/uL
  RBC: 774.4 x10_4/ul
  Ret: 2.5%
  WBC: 107.1 x10_2/uL
